A short description of series [1]: Solubility of fluorosurfactants in perflubron. The conditions noted are these: PDFOA at 25° C.
Series [2] can be described thus: Pseudo-phase diagram fluorosurfactant screen: ethanol incorporation in E/F microemulsions. In kind it is physicochemical. The conditions noted are these: maximum ethanol in stable clear E/F microemulsion. The procedure: Pseudo-Phase Diagrams: Fluorosurfactant Screen. Studies focused on E/F microemulsions that allowed for maximum solubilization of ethanol. […] Briefly, a small amount of ethanol was added to defined perflubron (X %)/(fluorosurfactant) (100-X %) mixtures in an attempt to solubilize ethanol and define the microemulsion window (i.e., portion of diagram that represents a clear system). […] While the mixture was stirring, ethanol was added in 5 μL (=[…] ethanol) aliquots. The clarity (transparency) of the systems as a function of the percentages of the three phases was plotted in order to define the microemulsion window, if any. This screen was repeated for each of the fluorosurfactant candidates.

Series [3] in a line: Droplet and particle size by photon correlation spectroscopy. In kind it is physicochemical. The procedure:
Modeling of E/F microemulsions: An ethanol-in-fluorocarbon(E/F) microemulsion was made having the following components: perflubron (0.7382 g), PDFOA (0.3195 g), and ethanol (0.3603 g). The weight of ethanol corresponded to 25.4% w/w of the final microemulsionor 65.7% of the microemulsion window (see FIG. 2). The average droplet size of 34.9 nm determined by photon correlation spectroscopy (dynamic light scattering at 11.3° for 300 seconds) agreed very well with the predicted ethanol droplet size based on simple mathematical modeling of surfactant-coated ethanol droplets. The total surface area of ethanol droplets that have an average diameter of 34.9 nm can be calculated in a series of equations as follows: Volume of one ethanol droplet=πd^3/6=2.226×10^−17 cm^3 (Equation 1) Total number of ethanol droplets=(0.3603 g[…])/[…]=1.989×10^16 droplets (Equation 2) Total surface area of each droplet=πd^2=3.827×10^−11 cm^2 (Equation 3) Total surface area of all ethanol droplets=1.989×10^16 droplets*3.827×10^−11 cm^2=760966 cm^2. (Equation 4) If we assume that PDFOA head-group (Mw 414.06 g/mol) occupies a space of 30 Å^2, then we can calculate the number of PDFOA molecules needed to cover the total surface area of all ethanol droplets from Equation 4 as: Total number of PDFOA molecules needed to cover the total surface area of all ethanol droplets=760966 cm^2/30×10^−16 cm^2=2.537×10^20 molecules of PDFOA. (Equation 5) Thus, 2.537×10^20 molecules of PDFOA would theoretically be needed to coat all of the surface area provided by all of the ethanol droplets. The ratio of ethanol to PDFOA molecules 65.7% through the microemulsion window was 10:1. […] The actual amount of PDFOA used to prepare the microemulsion was 0.3195 g which was within 3% of the predicted amount (0.3195 g/0.3282 g=0.973 or 97.3%) based on the measured droplet size of ethanol. Thus, this simple modeling supports the formation of a E/F microemulsion as well as the particle sizing method used.
To determine the existence of an oil-in-water microemulsion window for the microemulsion precursor, exactly two (2) milligrams of emulsifying wax were weighed accurately into ten separate 7-mL glass vials and melted at 50° C. on a temperature calibrated magnetic hot plate. Water (0.2 μm filtered) was then added (750–1000 μL) to form a homogeneous milky slurry in the stirring water at 50° C. To form the microemulsion precursor, the surfactant polyoxy 20 stearyl ether (100 mM) in water was added (0–250 μL) so that the final surfactant concentration ranged from 0 mM to 25 mM in the ten vials. The microemulsion precursor was then removed from heat (52–54° C.) and allowed to cool to 25° C. while stirring. […] Thus, an apparent microemulsion window was defined. One hundred (100) μL of each cooled system was taken and diluted with 900 μL water. The particle size of the diluted solid nanoparticles was determined using a Coulter N4 Plus Sub-Micron Particle Sizer at 20° C. by scattering light at 90° for 120 seconds. The particle sizes of systems with no surfactant added could not be determined since the systems contained precipitates that were greater than 3000 nm in diameter. […] To determine if the measured droplet sizes in either the microemulsion nanotemplate or the cured solid nanoparticles were due to the presence of surfactant micelles, samples were made as described above with no emulsifying wax and with final surfactant concentrations ranging from 0 mM to 100 mM in water. […] It is likely that the relatively heterogeneous nature of the polymeric surfactant makes the determination of its CMC difficult using conventional techniques. Photon correlation spectroscopy, using a Coulter N4 Plus Submicron Particle Sizer, was used to determine the existence and the size of the surfactant micelles.
Preparation of cationic nanoparticles made from microemulsion precursors: Exactly 2 mg of emulsifying wax was placed into six 7-ml glass scintillation vials. […]

Results on 8 compounds are retold here after US7153525B1, “Microemulsions as precursors to solid nanoparticles” (The University of Kentucky Research Foundation, priority 2000, dated 2006).

In the case of `COC(=O)C(F)(F)C(F)(F)C(F)(F)C(F)(F)C(F)(F)C(F)(F)C(F)(F)F` [D8, Pentadecafluoromethyloctanoate], the Solubility in perflubron entry in series [1] was “soluble”. Take `O=C(O)C(F)(F)C(F)(F)C(F)(F)C(F)(F)C(F)(F)C(F)(F)C(F)(F)C(F)(F)C(F)(F)C(F)(F)C(F)(F)C(F)(F)C(F)(F)F` [Perfluorotetradecanoicacid (D6), Perfluorotetradecanoicacid]: the “Final (Ethanol) % w/w Solubilized in Perflubron/Fluorosurfactant (70/3 w/w)” value in series [2] is given as 66.6 % w/w.

For the compound `OCCC(F)(F)C(F)(F)C(F)(F)C(F)(F)C(F)(F)C(F)(F)F` [D3, Tridecafluoro-1-octanol], the Solubility in perflubron entry in series [1] is recorded as “soluble”. With `O=C(O)C(F)(F)C(F)(F)C(F)(F)C(F)(F)C(F)(F)C(F)(F)C(F)(F)C(F)(F)C(F)(F)C(F)(F)C(F)(F)F` [Perfluorododecanoicacid (D7), Perfluorododecanoicacid], the “Final (Ethanol) % w/w Solubilized in Perflubron/Fluorosurfactant (70/3 w/w)” value in series [2] stood at 59.2 % w/w. For the compound `O=C(O)C(F)(F)C(F)(F)C(F)(F)C(F)(F)C(F)(F)C(F)(F)F` [D5, Tridecafluoroheptanoicacid], the Solubility in perflubron result in series [1] is “soluble”. On to “ASF-pal: asialofetuin derivatized with about 12 palmitate arms per molecule, hepatocyte-specific ligand”, for which the “Size of micelles formed alone in water” value is reported as 3–15 nm in series [3] (67 μg/mL) and 3–10 nm in series [3] (1340 μg/mL). Moreover, the “Size of larger aggregates formed alone in water” value in series [3] (1340 μg/mL) is 40–300 nm. In series [3] (ASF-pal added to 200 μg nanoparticles per mL, 1 hour at 25° C.), the “Effect of adding ASF-pal on particle size of cured nanoparticles” value is listed as “only a small effect”. `CC(=O)C=C(C)[O-].CC(=O)C=C(C)[O-].CC(=O)C=C(C)[O-].[Gd+3]` [GdAcAc, Gadolinium acetylacetonate]: in series [3] (0.1 mg to 1 mg in emulsifying wax and Brij 72 nanoparticles (2 mg/mL)), the “Effect of GdAcAc entrapment on particle sizes of cured nanoparticles” value is “little or no effect”. Moreover, the “Particle size of cured nanoparticles” value in series [3] (cooled to 25° C.) is given as “about 50 nm”.

In the case of `O=C(O)C(F)(F)C(F)(F)C(F)(F)C(F)(F)C(F)(F)C(F)(F)C(F)(F)F` [PDFOA, Pentadecafluorooctanoicacid], the Solubility in perflubron entry in series [1] was “did not dissolve”. Further, the “Final (Ethanol) % w/w Solubilized in Perflubron/Fluorosurfactant (70/3 w/w)” value in series [2] is reported as “up to 37.2 % w/w”; in series [2] (listed as Pentadecafluorooctanoicacid (PDFOA)) it was 37.2 % w/w.
